Test results published in article PMC2673211, “Nitric oxide activates ATP-sensitive potassium channels in mammalian sensory neurons: action by direct S-nitrosylation” (Molecular Pain, 2009).

Experiments:
[1] = target: T1, KATP channels in large DRG neurons (Rattus norvegicus, UniProt P70673+Q09429); assay: Excised inside-out (cell-free) patch-clamp recording of KATP channel activity; format: biochemical; details: SS neurons; for direct effect on KATP channel in inside-out patches: n = 6
T1 construct: native KATP channels in large DRG neurons; endogenous in cells; host or cells: acutely dissociated large-diameter neurons from rat L4/L5 dorsal root ganglia (sham-operated or spinal nerve ligated animals)
From the text: (§1) We harvested control (L4 and L5) or axotomized (L5) ganglia, from control (SS) or hyperalgesic rats (SNL) respectively, between the 17th and 28th postoperative days. We sacrificed animals by decapitation under deep isoflurane anesthesia, excised ganglia through a lumbar incision, and at the same time confirmed accuracy of initial surgery.
For patch-clamp recordings, we placed excised DRG into separate 35 mm Petri dishes containing cold, oxygenated, Hanks Balanced Salt Solution (Gibko, Invitrogen, Grand Islan, NY), and minced them with iris scissors. We dissociated ganglia enzymatically in a solution containing 0.25 ml 0.05% w:v liberase blendzyme 2 (Roche Diagnostics Corp., Indianapolis, IN) and 0.25 ml DMEM/F12 with glutaMAX (Dulbecco's modified Eagle's medium F12; Gibco, Invitrogen Corp., Carlsbad, CA) in an incubator at 37°C for 30 min. We then removed the supernatant after centrifugation and re-incubated cells at 37°C for another 30 min in 0.2 ml 0.0625% trypsin (Sigma, St. Louis, MO) and 0.0125% deoxyribonuclease 1 (150,000 U, Sigma, St. Louis, MO) in 0.25 ml DMEM. We then isolated cells by centrifugation (600 rpm for 5 min) after adding 0.25 ml trypsin inhibitor 0.1% w:v (Sigma St. Louis, MO), and re-suspended them in a culture medium consisting of 0.5 mM glutamine, 0.02 mg/ml gentamicin (Gibco, Invitrogen Corp., Carlsbad, CA), 100 ng/ml nerve growth factor 7S (Alomone Labs, Jerusalem, Israel), 2% (vol/vol) B-27 supplement (Gibco, Invitrogen Corp., Carlsbad, CA), and 98% (vol/vol) neural basal medium A (Gibco, Invitrogen Corp., Carlsbad, CA). Finally, we plated cells onto poly-l-lysine-coated 12-mm glass coverslips (Deutsche Spiegelglas; Carolina Biologic Supply, Burlington, NC), kept them in a humidified incubator at 37°C with 95% air and 5% CO2, and studied them within 3–8 h of dissociation.
We visualized plated neurons using an inverted Nikon Diaphot 300 microscope with Hoffman modulation optic system. We selected only large diameter neuronal somata (≥ 40 μm in diameter) because we have previously shown that only these develop KATP current alterations, as well as changes indicative of increased excitability after painful-like nerve injury by SNL [74]. Large neuronal somata, roughly correspond to large, myelinated Aβ fibers.
(§2) We recorded current passing through single channels in inside-out or cell-attached patch configurations. In cell-attached patches, both bath and pipette (extracellular) solutions were composed of the following: 140 mM KCl, 10 mM HEPES, 5.5 mM dextrose, and 1 mM EGTA. In inside-out patches, the bath (intracellular) solution contained 140 mM KCl, 1.2 mM MgCl2, 10 mM HEPES, 1.5 mM EGTA and 5.5 mM dextrose. The pipette (extracellular) solution was of the same composition as that used in cell-attached recordings. The pH of all solutions was adjusted to 7.4 with KOH. Osmolality was adjusted approximately to 300 mOsm/l by adding sucrose if necessary. We pulled patch micropipettes from borosilicate glass capillaries using a Flaming/Brown micropipette puller, model P-97 (Sutter, San Rafael, CA) and flame polished them with a microforge polisher (Narishige, Tokyo, Japan) prior to use. Their resistance ranged between 3 and 6 MΩ when filled with the internal solution, and placed into the recording solutions.
We recorded single channel currents at room temperature (20–25°C) using an Axon CNS Multiclamp 700B amplifier, digitized them using an analog-to-digital converter (Axon CNS DigiData 1440A; Axon Instruments, Foster, CA), and stored them into a PC. Sampling frequency of single-channel data was 5 KHz with a low-pass filter (1 KHz). We used pClamp version 10.2 software (Axon Instruments) for data acquisition and analysis. We applied a conventional 50% current amplitude threshold level criterion to determine open events. Channel open probability (Po) was determined from the ratios of the area under the peaks in the amplitude histograms fitted by a Gaussian distribution. […]

[2] = target: T1, KATP channels in large DRG neurons; assay: Cell-attached single-channel patch-clamp recording of KATP channel activity (NPo); format: cell-based; details: for NPo steady-state value 10 minutes after application of SNAP: SNAP 100 μM, n = 7
From the text: as §1
For patch-clamp recordings, we placed excised DRG into separate 35 mm Petri dishes containing cold, oxygenated, Hanks Balanced Salt Solution (Gibko, Invitrogen, Grand Islan, NY), and minced them with iris scissors. We dissociated ganglia enzymatically in a solution containing 0.25 ml 0.05% w:v liberase blendzyme 2 (Roche Diagnostics Corp., Indianapolis, IN) and 0.25 ml DMEM/F12 with glutaMAX (Dulbecco's modified Eagle's medium F12; Gibco, Invitrogen Corp., Carlsbad, CA) in an incubator at 37°C for 30 min. […] Finally, we plated cells onto poly-l-lysine-coated 12-mm glass coverslips (Deutsche Spiegelglas; Carolina Biologic Supply, Burlington, NC), kept them in a humidified incubator at 37°C with 95% air and 5% CO2, and studied them within 3–8 h of dissociation.
We visualized plated neurons using an inverted Nikon Diaphot 300 microscope with Hoffman modulation optic system. […] Large neuronal somata, roughly correspond to large, myelinated Aβ fibers.
as §2
Sampling frequency of single-channel data was 5 KHz with a low-pass filter (1 KHz). […] We applied a conventional 50% current amplitude threshold level criterion to determine open events. Channel open probability (Po) was determined from the ratios of the area under the peaks in the amplitude histograms fitted by a Gaussian distribution. We calculated channel activity as NPo (where N is the number of observed channels in the patch) from data samples of either 30 s (in inside-out recordings), or 60 s (in cell-attached recordings), in the steady state. In inside-out recordings, NPo of the KATP channels was normalized to the baseline NPo value obtained before test drugs at bathing solution without ATP (indicating relative channel activity).

T1 sequence (Q09429 whole entry): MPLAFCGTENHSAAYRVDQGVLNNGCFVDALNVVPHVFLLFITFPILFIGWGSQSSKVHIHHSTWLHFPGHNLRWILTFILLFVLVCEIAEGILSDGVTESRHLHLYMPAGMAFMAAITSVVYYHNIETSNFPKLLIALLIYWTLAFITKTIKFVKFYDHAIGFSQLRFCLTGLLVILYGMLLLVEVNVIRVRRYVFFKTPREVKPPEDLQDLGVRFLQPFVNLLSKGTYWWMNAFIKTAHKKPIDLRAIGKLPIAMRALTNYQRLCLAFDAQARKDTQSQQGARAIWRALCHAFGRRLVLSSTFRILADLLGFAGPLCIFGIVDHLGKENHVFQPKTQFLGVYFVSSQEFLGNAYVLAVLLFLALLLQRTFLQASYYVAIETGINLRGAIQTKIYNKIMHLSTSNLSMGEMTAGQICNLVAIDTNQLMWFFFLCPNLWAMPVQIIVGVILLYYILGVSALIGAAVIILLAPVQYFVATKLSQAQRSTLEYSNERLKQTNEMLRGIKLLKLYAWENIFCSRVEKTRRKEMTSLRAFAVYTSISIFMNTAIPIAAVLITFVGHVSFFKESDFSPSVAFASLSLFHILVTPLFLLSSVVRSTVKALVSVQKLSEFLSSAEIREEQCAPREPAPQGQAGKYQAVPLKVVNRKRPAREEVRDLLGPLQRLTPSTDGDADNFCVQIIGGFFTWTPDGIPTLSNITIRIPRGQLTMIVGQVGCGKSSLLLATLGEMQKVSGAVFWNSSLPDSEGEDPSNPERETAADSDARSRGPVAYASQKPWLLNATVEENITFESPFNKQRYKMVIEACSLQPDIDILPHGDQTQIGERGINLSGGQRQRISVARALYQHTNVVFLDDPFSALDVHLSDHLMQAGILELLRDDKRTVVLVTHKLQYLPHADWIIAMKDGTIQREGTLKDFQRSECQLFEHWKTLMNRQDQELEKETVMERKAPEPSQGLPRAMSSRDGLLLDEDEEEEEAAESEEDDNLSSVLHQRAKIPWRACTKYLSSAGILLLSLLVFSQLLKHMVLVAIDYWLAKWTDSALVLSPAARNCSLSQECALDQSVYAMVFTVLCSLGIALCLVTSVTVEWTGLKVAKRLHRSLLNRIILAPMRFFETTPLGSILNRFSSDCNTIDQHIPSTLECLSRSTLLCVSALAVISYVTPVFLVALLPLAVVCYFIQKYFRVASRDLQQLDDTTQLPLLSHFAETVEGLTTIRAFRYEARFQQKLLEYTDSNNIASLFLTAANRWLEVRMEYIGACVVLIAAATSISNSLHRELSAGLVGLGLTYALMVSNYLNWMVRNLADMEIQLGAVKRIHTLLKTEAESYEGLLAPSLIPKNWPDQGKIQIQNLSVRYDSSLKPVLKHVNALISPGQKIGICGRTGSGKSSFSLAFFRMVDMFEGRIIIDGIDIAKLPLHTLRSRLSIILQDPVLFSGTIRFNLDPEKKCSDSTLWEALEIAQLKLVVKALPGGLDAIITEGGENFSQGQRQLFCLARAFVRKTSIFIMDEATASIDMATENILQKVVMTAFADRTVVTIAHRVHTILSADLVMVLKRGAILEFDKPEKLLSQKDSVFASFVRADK
T1 sequence (P70673 whole entry): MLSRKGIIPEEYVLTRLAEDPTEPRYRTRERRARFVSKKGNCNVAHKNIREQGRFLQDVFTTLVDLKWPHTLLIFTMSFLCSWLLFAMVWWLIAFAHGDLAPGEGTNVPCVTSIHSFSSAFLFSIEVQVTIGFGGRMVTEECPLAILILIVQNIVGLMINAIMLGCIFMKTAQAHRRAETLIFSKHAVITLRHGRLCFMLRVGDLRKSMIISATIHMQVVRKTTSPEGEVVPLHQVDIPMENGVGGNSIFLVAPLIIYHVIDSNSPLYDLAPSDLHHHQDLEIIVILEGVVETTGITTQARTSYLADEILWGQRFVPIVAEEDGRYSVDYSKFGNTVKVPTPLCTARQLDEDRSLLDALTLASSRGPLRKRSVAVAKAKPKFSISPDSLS

## S-nitroso-N-acetylpenicillamine [SNAP]
[1]; SNAP 100 μM in the presence of 10 μM [ATP]i
  direct effect on KATP channel in inside-out patches: did not produce any significant channel activation
[1]; SNAP 100 μM in the presence of 1 mM [ATP]i
  direct effect on KATP channel in inside-out patches: gradually activated
[1]; patch exposure to 100 μM SNAP, n = 5
  baseline current amplitude and conductance of channels: remained unchanged
[2]; SNAP, data not shown
  washout period after which effects were reversible: 2 to 5 min
[2]; SNL neurons
  NPo steady-state value 10 minutes after application of SNAP: 0.31 ± 0.09
[2]; SS and SNL neurons
  concentration at which KATP channel activation reaches a saturating plateau: ≥ 100 µM
[2]; SS neurons
  NPo steady-state value 10 minutes after application of SNAP: 0.27 ± 0.07
